Reference: PMC7988154, “Mechanism of substrate transport and inhibition of the human LAT1-4F2hc amino acid transporter” (Cell Discovery, 2021)

target: T1, LAT1 (SLC7A5) (Homo sapiens, UniProt Q01650); experiment: cryo-EM structure of the LAT1-4F2hc complex; IC50 from [3H]-L-leucine uptake in HT-29 cells; assay type: cell-based
T1 construct: with 4F2hc (SLC3A2)
T1 sequence (Q01650 whole entry): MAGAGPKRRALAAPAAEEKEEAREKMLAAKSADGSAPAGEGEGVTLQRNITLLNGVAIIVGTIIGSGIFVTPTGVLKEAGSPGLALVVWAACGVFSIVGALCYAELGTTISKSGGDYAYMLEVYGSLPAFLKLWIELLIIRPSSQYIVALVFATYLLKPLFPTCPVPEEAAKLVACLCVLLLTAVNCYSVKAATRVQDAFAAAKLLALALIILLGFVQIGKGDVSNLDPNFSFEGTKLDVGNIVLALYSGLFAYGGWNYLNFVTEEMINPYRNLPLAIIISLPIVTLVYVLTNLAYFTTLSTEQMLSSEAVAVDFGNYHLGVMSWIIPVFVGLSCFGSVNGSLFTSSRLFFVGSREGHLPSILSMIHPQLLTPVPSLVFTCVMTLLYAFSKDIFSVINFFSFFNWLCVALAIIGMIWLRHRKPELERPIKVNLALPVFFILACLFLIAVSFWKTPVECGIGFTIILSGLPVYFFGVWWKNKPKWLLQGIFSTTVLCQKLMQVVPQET
T1 sequence (P08195 103-630 partner): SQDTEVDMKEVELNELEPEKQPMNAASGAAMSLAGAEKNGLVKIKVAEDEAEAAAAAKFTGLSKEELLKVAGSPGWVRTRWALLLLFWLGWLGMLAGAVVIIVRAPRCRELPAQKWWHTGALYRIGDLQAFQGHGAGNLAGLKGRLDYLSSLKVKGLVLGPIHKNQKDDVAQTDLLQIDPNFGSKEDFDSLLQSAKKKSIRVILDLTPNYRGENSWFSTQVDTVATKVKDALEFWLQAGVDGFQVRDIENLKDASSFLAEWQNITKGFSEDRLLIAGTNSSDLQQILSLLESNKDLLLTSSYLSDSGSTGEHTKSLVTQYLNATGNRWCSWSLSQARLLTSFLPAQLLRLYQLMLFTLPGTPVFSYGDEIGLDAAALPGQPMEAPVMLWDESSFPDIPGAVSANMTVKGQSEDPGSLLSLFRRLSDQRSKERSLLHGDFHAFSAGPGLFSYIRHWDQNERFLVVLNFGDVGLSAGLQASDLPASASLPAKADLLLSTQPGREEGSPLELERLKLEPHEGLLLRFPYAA

| IC50 | SMILES |
| --- | --- |
| 0.165 µM | NC1(C(=O)O)CCc2ccc(OCc3cccc4ccccc34)cc2C1 (stereo not drawn) [JX-075] |
| 0.121 µM | NC1(C(=O)O)CCc2ccc(OCc3ccccc3-c3ccccc3)cc2C1 (stereo not drawn) [JX-078] |
| 0.234 µM | NC1(C(=O)O)CCc2ccc(OCc3ccccc3-c3nc4ccccc4o3)cc2C1 (stereo not drawn) [JX-119] |
